# Article PMC10536132, “Arginine Gemini-Based Surfactants for Antimicrobial and Antibiofilm Applications: Molecular Interactions, Skin-Related Anti-Enzymatic Activity and Cytotoxicity” (Molecules, 2023)
# Marks after values point to notes of the source that are not given here.
# What was measured:
# [1] = system: methicillin-resistant Staphylococcus aureus (MRSA) ATCC 43300 biofilm; assay: Biofilm inhibition, crystal violet; type: cell-based; details: 24 h contact, 2–128 μg/mL tested
# Protocol: (§1) The ability of MRSA and P. aeruginosa to form biofilms on propylene surfaces in the presence of bis-Args was determined. The two bacterial cells were kept in contact with the gemini surfactants at different concentrations from 2 to 128 μg/mL for 24 h. Then, the percentage of biofilm inhibition was determined.
# (§2) Antibiofilm activity was assessed against biofilm-producing strains of methicillin-resistant Staphylococcus aureus (MRSA) ATCC 43300 and Pseudomonas aeruginosa PAO1. Biofilm inhibition and eradication capacities of the gemini surfactants were evaluated against adherent bacterial biofilms grown in 96-well microtiter plates. Bacteria were grown overnight in tryptic soy agar at 37 °C for 24 h. The bacteria were suspended in lysogeny broth with glucose (1%) at 1.5 × 10^8 CFU/mL.
# (§3) Biofilm inhibition procedure: 100 μL of the gemini surfactant at different concentration values was added to each well in a 96-well microplate, then, 100 μL of the diluted bacterial suspension was added to the wells. Two-fold serial dilutions of the gemini surfactants to be tested were used (2–128 μg/mL). Microtiter plates were incubated at 37 °C for 24 h. Spent growth media was then discarded and biofilm was fixed with 150 μL methanol for 10 min. After the plates were air dried, the biofilms were stained with 50 μL of 0.1 of % crystal violet for 25 min. The plates were rinsed with water and then 150 μL of 96% ethanol containing 10% acetic acid was added to all 96-well plates to dissolve the remaining crystal violet-stained biofilm. The absorbance value was recorded at 570 nm. Each assay was performed at least three times and the results were averaged.
# [2] = system: Pseudomonas aeruginosa PAO1 biofilm; assay: Biofilm inhibition, crystal violet; type: cell-based; details: P. aeruginosa PAO1, 24 h contact, 2–128 μg/mL tested
# Protocol: as §1, §2, §3
# [3] = Cell viability, NRU assay; type: cell-based, human; details: human, HaCaT cells (immortal human keratinocytes); NRU, HaCaT, surfactant in solution at 35.6 µg/mL, 24 h; read-out: cellular viability
# Protocol: (§4) The immortal human keratinocyte (HaCaT) and the squamous cell carcinoma (A431) were obtained from Celltec, University of Barcelona. The cells were grown in DMEM medium (4.5 g/L glucose) supplemented with 10% (v/v) FBS, 2 mM L-glutamine, 100 U/mL of penicillin and 100 μg/mL of streptomycin at 37 °C under 5% CO2. Cells were routinely cultured in 75 cm^2 culture flasks and were trypsinized using trypsin-EDTA when reached approximately 80% of confluence.
# (§5) HaCaT cells (1 × 10^5 cells/mL) and A431 cells (5 × 10^4 cells/mL) were grown at the defined densities into the central 60 wells of a 96-well microplate. Cells were incubated for 24 h under 5% CO2 at 37 °C. The medium was then removed and the cells were incubated with the surfactants (100 μL), previously diluted 1:1 (v/v), reaching a concentration of […] in DMEM medium supplemented with 5% FBS using two different colorimetric methods for quantification, as follows.
# (§6) The accumulation of the neutral red dye in the lysosomes of viable, undamaged cells constitutes the basis of the neutral red uptake (NRU) assay. After the cells were incubated for 24 h with the corresponding systems at 35.6 µg/mL, the medium was removed and the surfactants´ solutions were incubated for 3 h with the NRU dye solution (50 μg/mL) dissolved in the medium without FBS and phenol red (Lonza). Cells were then washed with sterile PBS, followed by the addition of 100 μL of a solution containing 50% ethanol absolute and 1% acetic acid in distilled water to extract the non-adhered dye. The microplates were then stirred for 5 min at 25 °C to promote the dissolution. Finally, the absorbance of the resulting solutions was measured at λ = 550 nm using a Bio-Rad 550 microplate reader (Hercules, CA, USA).
# [4] = system: immortal human keratinocytes (HaCaT); assay: Cell viability, NRU assay; type: cell-based
# Protocol: as §4, §5, §6
# bovine hyaluronidase = assay: Hyaluronidase inhibitory activity; type: biochemical; details: negative inhibition values
# Procedure, shortened: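 Bovine hyaluronidase (7900 units/mL working solution, 0.1 M acetate pH 3.6) was mixed 1:1 with surfactant in 5% DMSO for 20 min at 37 °C, then with CaCl2 (12.5 mM) for 20 min, then sodium hyaluronate (1.2 mg/mL) for 40 min. The p-dimethylaminobenzaldehyde colour was read at 585 nm. % inhibition = (A1−A2)/A1×100.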
# [5] = design: method as in doi:10.1021/la981295l; details: cited from earlier work
# [6] = target: porcine pancreatic elastase (Sus scrofa, UniProt P00772); assay: Elastase inhibitory assay; type: biochemical; details: 40 µL of 1000 µg/mL stock; EGCG 250 μM
# Procedure, shortened: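 Porcine pancreatic elastase preincubated 15 min with diluted surfactant samples, then N-succinyl-(Ala)3-p-nitroanilide substrate added in Tris-HCl pH 8.0. Absorbance at 410 nm followed for 2 h; % inhibition from absorbance without versus with sample, in triplicate.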
# porcine pancreatic elastase, sequence (P00772 27-266): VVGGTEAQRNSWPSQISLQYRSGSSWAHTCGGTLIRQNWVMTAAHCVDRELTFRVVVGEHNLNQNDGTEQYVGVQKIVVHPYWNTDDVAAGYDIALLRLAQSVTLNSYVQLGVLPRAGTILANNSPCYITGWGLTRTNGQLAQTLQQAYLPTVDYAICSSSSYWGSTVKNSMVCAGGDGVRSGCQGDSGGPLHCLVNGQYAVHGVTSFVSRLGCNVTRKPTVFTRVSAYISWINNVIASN
smiles,measurement,setting,value
"CCCCCCCCCCCC(=O)NC(CCCNC(=N)N)C(=O)NCCCNC(=O)C(CCCNC(=N)N)NC(=O)CCCCCCCCCCC (stereo not drawn) [C3(LA)2, Bis (N^α-lauroyl arginine 1,3-propane) diamide]",concentration that inhibits biofilm formation,[1],32 µg/mL
same,concentration that inhibits biofilm formation,[2],32 µg/mL
same,"viability at 24 h, 35.6 µg/mL",[3],66.2%
same,IC50,"[4]; Homo sapiens, NRU method, HaCaT, above the highest tested concentration",> 35.6 µg/mL
same,"therapeutic index (TI), IC50/MIC ratio","[4]; NRU, HaCaT IC50 versus MIC against the Gram-positive bacteria, E. coli and PA01",higher than one
same,increase of hyaluronidase enzymatic activity,bovine hyaluronidase,48.3%
same,CMC (mM) Fluorescence,[5],0.4 * mM
same,anti-elastase activity (inhibition),[6],17%
